Laboratory results reported in US20240368694A1 (priority 2021, published 2024).

Columns and labels:
[1] = pigs, cited from earlier work
[2] = tested on: serum interleukins IL1β, IL-8, IL-13, tumor necrosis factor or interferon-gamma; settings: pigs, 3.3-3.8 ppm DON in feed (Pasternak et al. 2018); cited from earlier work
miRNAs in serum = tested on: miRNAs in serum; set-up: species or system Sus scrofa; settings: in vivo
[3] = tested on: ssc-miR-16, ssc-miR-128, ssc-miR-205 and ssc-miR-451 in serum; set-up: species or system Sus scrofa; settings: in vivo
[4] = tested on: miRNA expression profiles in liver and jejunum; set-up: species or system Sus scrofa; settings: in vivo
[5] = tested on: insulin like growth factor 1 (IGF1); settings: serum levels of growth hormones (Wang et al. 2019; Wu et al. 2013, 2015); cited from earlier work

In the case of `CC1=C[C@H]2O[C@@H]3[C@H](O)C[C@](C)([C@@]2(CO)[C@H](O)C1=O)[C@]31CO1` [DON, (3α,7α)-3,7,15-trihydroxy-12,13-epoxytrichothec-9-en-8-one], the “doses of DON in feed starting from which feed consumption and weight gain decrease” value ([1]; EFSA summary of multiple feeding trials) is listed as 0.6-2.0 ppm, the “effect on body weight at 3 ppm DON” value ([1]; exposure to 3 ppm DON (Grenier et al. 2011, 2013)) is listed as “does not necessarily result in significant effects on body weight” and the “effect on serum interleukins IL1β, IL-8, IL-13, tumor necrosis factor or interferon-gamma” value [2] is listed as “had no effect”. The “number of serum miRNAs significantly altered in both DON low and DON high” value (miRNAs in serum) was “eight”, the “number of serum miRNAs significantly altered, DON high vs Control” value (miRNAs in serum) was 16 and the “number of serum miRNAs significantly altered, DON low vs Control” value (miRNAs in serum) was 15. For the same compound, the “ssc-let-7a Log2 fold vs Control, DON high” value (miRNAs in serum) was −0.502, the “ssc-let-7a Log2 fold vs Control, DON low” value (miRNAs in serum) was “n.s” and the “ssc-let-7f-5p Log2 fold vs Control, DON high” value (miRNAs in serum) was −0.503. The “ssc-let-7f-5p Log2 fold vs Control, DON low” value (miRNAs in serum) was “n.s”, the “ssc-let-7g Log2 fold vs Control, DON high” value (miRNAs in serum) was 0.662 and the “ssc-let-7g Log2 fold vs Control, DON low” value (miRNAs in serum) was “n.s”. The “ssc-miR-10a-5p Log2 fold vs Control, DON high” value (miRNAs in serum) was “n.s”, the “ssc-miR-10a-5p Log2 fold vs Control, DON low” value (miRNAs in serum) was −0.806 and the “ssc-miR-10b Log2 fold vs Control, DON high” value (miRNAs in serum) was −0.754. The “ssc-miR-10b Log2 fold vs Control, DON low” value (miRNAs in serum) was −1.129, the “ssc-miR-10b direction of change in serum upon DON treatment” value (miRNAs in serum) was “down-regulated” and the “ssc-miR-16 Log2 fold vs Control, DON high” value (miRNAs in serum) was 0.773. For the same compound, the “ssc-miR-16 Log2 fold vs Control, DON low” value (miRNAs in serum) was 1.217, the “ssc-miR-16 direction of change in serum of DON exposed pigs” value (miRNAs in serum) was “up-regulated” and the “ssc-miR-17-5p Log2 fold vs Control, DON high” value (miRNAs in serum) was 1.194. For the same compound, the “ssc-miR-17-5p Log2 fold vs Control, DON low” value (miRNAs in serum) was “n.s”, the “ssc-miR-92a Log2 fold vs Control, DON high” value (miRNAs in serum) was 0.476 and the “ssc-miR-92a Log2 fold vs Control, DON low” value (miRNAs in serum) was “n.s”. For the same compound, the “ssc-miR-92b-3p Log2 fold vs Control, DON high” value (miRNAs in serum) was “n.s”, the “ssc-miR-92b-3p Log2 fold vs Control, DON low” value (miRNAs in serum) was −1.058 and the “ssc-miR-99b Log2 fold vs Control, DON high” value (miRNAs in serum) was −1.226. The “ssc-miR-99b Log2 fold vs Control, DON low” value (miRNAs in serum) was −1.393, the “ssc-miR-99b direction of change in serum upon DON treatment” value (miRNAs in serum) was “down-regulated” and the “ssc-miR-103 Log2 fold vs Control, DON high” value (miRNAs in serum) was −0.630. The “ssc-miR-103 Log2 fold vs Control, DON low” value (miRNAs in serum) was “n.s”, the “ssc-miR-107 Log2 fold vs Control, DON high” value (miRNAs in serum) was −0.619 and the “ssc-miR-107 Log2 fold vs Control, DON low” value (miRNAs in serum) was “n.s”. The “ssc-miR-126-5p Log2 fold vs Control, DON high” value (miRNAs in serum) was “n.s”, the “ssc-miR-126-5p Log2 fold vs Control, DON low” value (miRNAs in serum) was −1.298 and the “ssc-miR-128 Log2 fold vs Control, DON high” value (miRNAs in serum) was 0.887. For the same compound, the “ssc-miR-128 Log2 fold vs Control, DON low” value (miRNAs in serum) was 1.124, the “ssc-miR-128 direction of change in serum of DON exposed pigs” value (miRNAs in serum) was “up-regulated” and the “ssc-miR-148a-3p Log2 fold vs Control, DON high” value (miRNAs in serum) was 0.521. The “ssc-miR-148a-3p Log2 fold vs Control, DON low” value (miRNAs in serum) was “n.s”, the “ssc-miR-192 Log2 fold vs Control, DON high” value (miRNAs in serum) was −0.928 and the “ssc-miR-192 Log2 fold vs Control, DON low” value (miRNAs in serum) was −1.133. For the same compound, the “ssc-miR-192 direction of change in serum upon DON treatment” value (miRNAs in serum) was “down-regulated”, the “ssc-miR-205 Log2 fold vs Control, DON high” value (miRNAs in serum) was 5.102 and the “ssc-miR-205 Log2 fold vs Control, DON low” value (miRNAs in serum) was 5.774. For the same compound, the “ssc-miR-205 direction of change in serum of DON exposed pigs” value (miRNAs in serum) was “up-regulated”, the “ssc-miR-339-5p Log2 fold vs Control, DON high” value (miRNAs in serum) was “n.s” and the “ssc-miR-339-5p Log2 fold vs Control, DON low” value (miRNAs in serum) was 1.346. For the same compound, the “ssc-miR-339 Log2 fold vs Control, DON high” value (miRNAs in serum) was “n.s”, the “ssc-miR-339 Log2 fold vs Control, DON low” value (miRNAs in serum) was 1.345 and the “ssc-miR-361-3p Log2 fold vs Control, DON high” value (miRNAs in serum) was “n.s”. The “ssc-miR-361-3p Log2 fold vs Control, DON low” value (miRNAs in serum) was 2.023, the “ssc-miR-374a-3p Log2 fold vs Control, DON high” value (miRNAs in serum) was −1.443 and the “ssc-miR-374a-3p Log2 fold vs Control, DON low” value (miRNAs in serum) was −1.271. The “ssc-miR-374a-3p direction of change in serum upon DON treatment” value (miRNAs in serum) was “down-regulated”, the “ssc-miR-451 Log2 fold vs Control, DON high” value (miRNAs in serum) was 0.808 and the “ssc-miR-451 Log2 fold vs Control, DON low” value (miRNAs in serum) was 1.375. For the same compound, the “ssc-miR-451 direction of change in serum of DON exposed pigs” value (miRNAs in serum) was “up-regulated”, the “ssc-miR-1388 Log2 fold vs Control, DON high” value (miRNAs in serum) was “n.s” and the “ssc-miR-1388 Log2 fold vs Control, DON low” value (miRNAs in serum) was −1.281. For the same compound, the “ssc-miR-16 normalized Cq-value log 2 fold change in the DON groups compared to the Control” value [3] was “increased”, the “ssc-miR-16 qPCR log2 fold change, DON_high vs Control” value [3] was 2.227 and the “ssc-miR-16 qPCR log2 fold change, DON_low vs Control” value [3] was 3.504. For the same compound, the “ssc-miR-128 normalized Cq-value log 2 fold change in the DON groups compared to the Control” value [3] was “increased”, the “ssc-miR-128 qPCR log2 fold change, DON_high vs Control” value [3] was 1.879 and the “ssc-miR-128 qPCR log2 fold change, DON_low vs Control” value [3] was 3.885. For the same compound, the “ssc-miR-205 normalized Cq-value log 2 fold change in the DON groups compared to the Control” value [3] was “increased”, the “ssc-miR-205 qPCR log2 fold change, DON_high vs Control” value [3] was 2.455 and the “ssc-miR-205 qPCR log2 fold change, DON_low vs Control” value [3] was 4.973. The “ssc-miR-451 normalized Cq-value log 2 fold change in the DON groups compared to the Control” value [3] was “increased”, the “ssc-miR-451 qPCR log2 fold change, DON_high vs Control” value [3] was 1.835 and the “ssc-miR-451 qPCR log2 fold change, DON_low vs Control” value [3] was 2.663. The “differentially expressed miRNAs in liver, Control vs DON high” value [4] was “one differentially expressed miRNA, namely ssc-miR-10b”, the “differentially expressed miRNAs in tissues, Control vs DON low” value [4] was “no differentially expressed miRNAs” and the “effect on the miRNA expression profiles in liver and jejunum” value [4] was “did not exhibit a strong effect”. For the same compound, the “dietary DON concentrations at which a decrease of serum IGF1 was reported” value [5] was no less than 3 ppm.
